Assay results from ChEMBL document CHEMBL5252598, “Armeniaspirol analogues disrupt the electrical potential (ΔΨ) of the proton motive force” (Bioorg Med Chem Lett, 2023).
Converted amounts (≈) assume the structure as drawn. The source made the active and inactive calls. The rule behind the calls is not given here.

Legend:
Cell membrane [1] = experiment: Induction of membrane depolarization in methicillin-resistant Staphylococcus aureus USA300 by […] dye-based fluorescence assay; format: subcellular
Staphylococcus aureus = experiment: Antibacterial activity against Staphylococcus aureus USA300 assessed as bacterial growth inhibition by checkerboard assay; format: functional
Cell membrane [2] = experiment: Induction of membrane depolarization in methicillin-resistant Staphylococcus aureus USA300 assessed as measuring minimum effective concentration by DiSC3(5) dye-based fluorescence assay
Escherichia coli [3] = experiment: Antagonistic antibacterial activity against Escherichia coli harbouring TolC-deficient mutant assessed as fractional inhibitory concentration in presence of kanamycin by checker board assay; format: functional
Bacteria [4] = experiment: Inhibition of ATP-dependent ClpYQ proteases (unknown origin)
Bacteria [5] = experiment: Inhibition of ATP-dependent ClpXP proteases (unknown origin)
Escherichia coli [6] = experiment: Antibacterial activity against Escherichia coli harbouring TolC-deficient mutant assessed as fractional inhibitory concentration in presence of tetracycline by checker board assay; format: functional
Cell membrane [7] = experiment: Induction of membrane depolarization in methicillin-resistant Staphylococcus aureus USA300 assessed as disruption of transmembrane electrical potential by DiSC3(5) dye-based fluorescence assay
Cell membrane [8] = experiment: Induction of membrane depolarization in methicillin-resistant Staphylococcus aureus USA300 assessed as disruption of transmembrane proton gradient by DiSC3(5) dye-based fluorescence assay

| SMILES | EC50 (Cell membrane [1]) | MIC (Staphylococcus aureus) | MEC (Cell membrane [2]) | other results |
| --- | --- | --- | --- | --- |
| CCCCCCc1c(O)c(Cl)cc2c1OC1(C2=O)C(Cl)=C(Cl)C(=O)N1Cc1ccc(C)cc1 (stereo not drawn) | 0.07 µg/mL (≈ 0.138 µM) | 0.5 µg/mL | 0.125 µg/mL | FIC (Escherichia coli [3]): >4 |
| Cc1c(O)c(Cl)cc2c1OC1(C2=O)C(Cl)=C(Cl)C(=O)N1Cc1ccccc1 (stereo not drawn) | 3.2 µg/mL (≈ 7.54 µM) | 32 µg/mL | 4 µg/mL | – |
| CCCCCCc1c(OC)c(Cl)cc2c1OC1(C2=O)C(Cl)=C(Cl)C(=O)N1CCCCCC (stereo not drawn) | 0.54 µg/mL (≈ 1.07 µM) | 4 µg/mL | 0.125 µg/mL | inhibition (Bacteria [4]): inactive; inhibition (Bacteria [5]): inactive |
| CCCCCCCCCCCCN1C(=O)C(Cl)=C(Cl)C12Oc1c(cc(Cl)c(O)c1C)C2=O (stereo not drawn) | 0.28 µg/mL (≈ 0.557 µM) | 1 µg/mL | 0.25 µg/mL | – |
| CCCCCCc1c(O)c(Cl)cc2c1OC1(C2=O)C(Cl)=C(Cl)C(=O)N1CCCCCC (stereo not drawn) | 0.07 µg/mL (≈ 0.143 µM) | 1 µg/mL | 0.0312 µg/mL | FIC (Escherichia coli [3]): >4 |
| CCCCCCc1c(O)c(Cl)cc2c1OC1(C2=O)C(Cl)=C(Cl)C(=O)N1Cc1ccccc1 (stereo not drawn) | 0.39 µg/mL (≈ 0.788 µM) | 1 µg/mL | 0.5 µg/mL | – |
| CCCCCCc1c(O)c(Cl)cc2c1OC1(C2=O)C(Cl)=C(Cl)C(=O)N1Cc1ccc(C(F)(F)F)cc1 (stereo not drawn) | 0.3 µg/mL (≈ 0.533 µM) | 2 µg/mL | 0.125 µg/mL | – |
| Cc1c(O)c(Cl)cc2c1OC1(C2=O)C(Cl)=C(Cl)C(=O)N1Cc1ccc(C(F)(F)F)cc1 (stereo not drawn) | 2.45 µg/mL (≈ 4.97 µM) | 16 µg/mL | 2 µg/mL | – |
| CCCCCCc1c(O)c(Cl)cc2c1OC1(C2=O)C(Cl)=C(Cl)C(=O)N1C (stereo not drawn) | 0.42 µg/mL (≈ 1 µM) | 4 µg/mL | 0.5 µg/mL | FIC (Escherichia coli [6]): 0.656; Activity (Cell membrane [7]): Active; FIC (Escherichia coli [3]): >4 |
| CCCCCCN1C(=O)C(Cl)=C(Cl)C12Oc1c(cc(Cl)c(O)c1C)C2=O (stereo not drawn) | 0.17 µg/mL (≈ 0.406 µM) | 4 µg/mL | 0.5 µg/mL | – |
| C=CCN1C(=O)C(Cl)=C(Cl)C12Oc1c(cc(Cl)c(O)c1CCCCCC)C2=O (stereo not drawn) | 0.23 µg/mL (≈ 0.517 µM) | 4 µg/mL | 0.25 µg/mL | – |
| CCCCCCc1c(OC)c(Cl)cc2c1OC1(C2)NC(=O)C(Cl)=C1Cl (stereo not drawn) | – | – | – | Activity (Cell membrane [7]): Active |
| CO[C@@H]1C[C@@H](C[C@H]2CC[C@H](C)[C@H]([C@@H](C)C(=O)O)O2)O[C@]2(O[C@](C)([C@H]3CC[C@@](C)([C@@H]4O[C@@H]([C@H]5O[C@@](O)(CO)[C@H](C)C[C@@H]5C)C[C@@H]4C)O3)C[C@H]2C)[C@@H]1C | – | – | – | Activity (Cell membrane [8]): Active |
| C=CCN1C(=O)C(Cl)=C(Cl)C12Oc1c(cc(Cl)c(O)c1C)C2=O (stereo not drawn) | > 8 µg/mL | > 32 µg/mL | 8 µg/mL | – |
| Cc1c(O)c(Cl)cc2c1OC1(C2=O)C(Cl)=C(Cl)C(=O)N1C (stereo not drawn) | > 8 µg/mL | > 32 µg/mL | 8 µg/mL | – |
| CCCCCCCCCCCCN1C(=O)C(Cl)=C(Cl)C12Oc1c(cc(Cl)c(O)c1CCCCCC)C2=O (stereo not drawn) | > 8 µg/mL | 16 µg/mL | > 1 µg/mL | – |
| CC(C)[C@@H]1NC(=O)[C@H](C)OC(=O)[C@@H](C(C)C)NC(=O)[C@@H](C(C)C)OC(=O)[C@H](C(C)C)NC(=O)[C@H](C)OC(=O)[C@@H](C(C)C)NC(=O)[C@@H](C(C)C)OC(=O)[C@H](C(C)C)NC(=O)[C@H](C)OC(=O)[C@@H](C(C)C)NC(=O)[C@@H](C(C)C)OC1=O | – | – | – | Activity (Cell membrane [7]): Active |
| CCCCCCc1c(O)c(Cl)cc2c1OC1(C2=O)C(Cl)=C(Cl)C(=O)N1CCc1ccccc1 (stereo not drawn) | 0.12 µg/mL (≈ 0.236 µM) | 0.5 µg/mL | 0.125 µg/mL | – |
| CCCCCCc1c(OC)c(Cl)cc2c1OC1(C2=O)C(Cl)=C(Cl)C(=O)N1C (stereo not drawn) | 2.04 µg/mL (≈ 4.71 µM) | > 32 µg/mL | 4 µg/mL | – |
